Laboratory results from patent US20060069132A1, “Azolecarboxamide herbicides” (priority 2004, published 2006).

Legend:
[1] = test system: morningglory; experiment: Test A pre-/postemergence herbicide test; assay type: in vivo, Ipomoea spp.
Method in brief: (§1)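 Plants are held in greenhouse about ten days after treatment, then compared with untreated controls and scored 0 (no effect) to 100 (complete control). Preemergence dosing is a directed soil spray on sown sandy loam; postemergence dosing is spray to runoff at 2–10 cm height.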

[2] = test system: redroot pigweed; experiment: Test A pre-/postemergence herbicide test; assay type: in vivo, Amaranthus retroflexus
Method in brief: as §1

[3] = test system: velvetleaf; experiment: Test A pre-/postemergence herbicide test; assay type: in vivo, Abutilon theophrasti
Method in brief: as §1

[4] = test system: bermudagrass; experiment: Test C pre-/postemergence herbicide test; assay type: in vivo, Cynodon dactylon; conditions: for Bermudagrass plant response rating: 500 g ai/ha
Method in brief: (§2)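 Greenhouse-grown plants were evaluated visually 12 to 14 days after treatment, with 100 meaning complete control and 0 no effect. Application was preemergence, or postemergence at 2 to 18 cm.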

[5] = test system: giant foxtail; experiment: Test C pre-/postemergence herbicide test; assay type: in vivo, Setaria faberi
Method in brief: as §2

[6] = test system: lambsquarters; experiment: Test C pre-/postemergence herbicide test; assay type: in vivo, Chenopodium album
Method in brief: as §2

[7] = test system: morningglory; experiment: Test C pre-/postemergence herbicide test; assay type: in vivo, Ipomoea coccinea; parameters: key to Plant response rating, Morningglory: 0 = no effect, 100 = complete control
Method in brief: as §2

[8] = test system: eastern black nightshade; experiment: Test C pre-/postemergence herbicide test; assay type: in vivo, Solanum ptycanthum; conditions: preemergence
Method in brief: as §2

[9] = test system: yellow nutsedge; experiment: Test C pre-/postemergence herbicide test; assay type: in vivo, Cyperus esculentus
Method in brief: as §2

[10] = test system: common ragweed; experiment: Test C pre-/postemergence herbicide test; assay type: in vivo, Ambrosia elatior; parameters: key to Plant response rating, Ragweed: 0 = no effect, 100 = complete control
Method in brief: as §2

[11] = test system: chickweed; experiment: Test C postemergence herbicide test; assay type: in vivo, Stellaria media
Method in brief: (§3)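 Greenhouse test with a 12–14 day hold after application and visual comparison with controls. Emerged plants were 1- to 4-leaf stage (2–18 cm) when sprayed postemergence, and the paddy barnyardgrass was at 2 leaves under flooded conditions. 100 = complete control.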

[12] = test system: smallflower umbrella sedge; experiment: Test C flooded paddy test; assay type: in vivo, Cyperus difformis
[13] = test system: barnyardgrass; experiment: Test C flooded paddy test; assay type: in vivo, Echinochloa crus-galli
Method in brief: as §3

[14] = Postemergence, 500 g ai/ha, 0 to 100 scale, 0 no effect, 100 complete control
[15] = Postemergence, 2000 g ai/ha, 0 to 100 scale, 0 no effect, 100 complete control
[16] = Preemergence, 500 g ai/ha, visual rating, 0 to 100 scale (0 no effect, 100 complete control)
[17] = Preemergence, 2000 g ai/ha, visual rating, 0 to 100 scale (0 no effect, 100 complete control)
[18] = 31 g ai/ha, preemergence, scale 0 to 100
[19] = 125 g ai/ha, scale 0 (no effect) to 100 (complete control), visual, 12 to 14 days, preemergence
[20] = 250 g ai/ha, scale 0 to 100 (0 no effect, 100 complete control), visual, 12 to 14 days, preemergence
[21] = Postemergence, 250 g ai/ha, scale 0 to 100, 0 no effect, 100 complete control
[22] = postemergence, 125 g ai/ha, scale 0 to 100
[23] = postemergence, 31 g ai/ha, scale 0 to 100
[24] = postemergence, 62 g ai/ha, scale 0 to 100
[25] = 125 g ai/ha, scale 0 (no effect) to 100 (complete control), visual, 12 to 14 days
[26] = 62 g ai/ha, preemergence, scale 0 to 100, 0 no effect, 100 complete control
[27] = 250 g ai/ha, scale 0-100, preemergence
[28] = 62 g ai/ha, preemergence, scale 0 to 100
[29] = 500 g ai/ha, scale 0 to 100 (0 no effect, 100 complete control), visual, 12 to 14 days, preemergence
[30] = Postemergence, 500 g ai/ha, scale 0 to 100
[31] = 125 g ai/ha, scale 0 to 100 (0 no effect, 100 complete control)
[32] = 250 g ai/ha, scale of 0 to 100, 0 is no effect, 100 is complete control
[33] = 500 g ai/ha, visual rating after 12 to 14 days, scale 0 to 100 (0 no effect, 100 complete control)

C=Cn1nc(C(C)(C)C)cc1C(=O)Nc1cccc(C(C)=NO)c1 [Compound 114]
Morningglory plant response rating [1, 14]: 10
Plant response rating, Morningglory [1, 15]: 25
Morningglory plant response rating [1, 16]: 35
Morningglory plant response rating [1, 17]: 70
Pigweed plant response rating [2, 14]: 85
Plant response rating, Pigweed [2, 15]: 100
Pigweed plant response rating [2, 16]: 85
Pigweed plant response rating [2, 17]: 90
Velvetleaf plant response rating [3, 14]: 20
Plant response rating, Velvetleaf [3, 15]: 20
Velvetleaf plant response rating [3, 16]: 35
Velvetleaf plant response rating [3, 17]: 60
Plant response rating, Bermudagrass [4, 18]: 10
Plant response rating (0 = no effect, 100 = complete control), Bermudagrass ([4]; 62 g ai/ha, preemergence): 50
Plant response rating, Bermudagrass [4, 19]: 90
Plant response rating, Bermudagrass [4, 20]: 100
Plant response rating, Bermudagrass [4, 21]: 90
Plant response rating, Bermudagrass [4, 22]: 90
Plant response rating, Bermudagrass [4, 23]: 20
Plant response rating, Bermudagrass [4, 24]: 60
Plant response rating, Foxtail, Giant [5, 18]: 20
Plant response rating (0 = no effect, 100 = complete control), Foxtail, Giant ([5]; 62 g ai/ha, preemergence): 20
Plant response rating, Foxtail, Giant [5, 19]: 30
Plant response rating, Foxtail, Giant [5, 20]: 40
Plant response rating, Foxtail, Giant [5, 21]: 10
Plant response rating, Foxtail, Giant [5, 24]: 10
Plant response rating, Lambsquarters [6, 18]: 40
Plant response rating (0 = no effect, 100 = complete control), Lambsquarters ([6]; 62 g ai/ha, preemergence): 80
Plant response rating, Lambsquarters [6, 19]: 100
Plant response rating, Lambsquarters [6, 21]: 100
Plant response rating, Lambsquarters [6, 22]: 90
Plant response rating, Lambsquarters [6, 24]: 90
Plant response rating, Morningglory [7, 18]: 40
Plant response rating, Morningglory [7, 19]: 60
Plant response rating, Morningglory [7, 22]: 30
Plant response rating, Morningglory [7, 24]: 10
Plant response rating, Nightshade ([8]; 31 g ai/ha, scale 0 to 100): 20
Plant response rating (0 = no effect, 100 = complete control), Nightshade ([8]; 62 g ai/ha): 70
Plant response rating, Nightshade [8, 25]: 90
Plant response rating, Nutsedge, Yellow [9, 18]: 0
Plant response rating (0 = no effect, 100 = complete control), Nutsedge, Yellow ([9]; 62 g ai/ha, preemergence): 0
Plant response rating, Nutsedge, Yellow [9, 19]: 0
Plant response rating, Nutsedge, Yellow [9, 21]: 10
Plant response rating, Nutsedge, Yellow [9, 22]: 0
Plant response rating, Nutsedge, Yellow [9, 24]: 0
Plant response rating, Ragweed [10, 18]: 10
Plant response rating (0 = no effect, 100 = complete control), Ragweed ([10]; 62 g ai/ha, preemergence): 10
Plant response rating, Ragweed [10, 19]: 10
Plant response rating, Ragweed [10, 21]: 90
Plant response rating, Ragweed [10, 22]: 80
Plant response rating, Ragweed [10, 24]: 60
Plant response rating, Chickweed [11, 21]: 100
Plant response rating, Chickweed [11, 23]: 80
Plant response rating, Chickweed [11, 24]: 100

CCOC(=O)c1cccc(NC(=O)c2nn(C(C)(C)CC)nc2CC)c1 [Compound 375]
Plant response rating, Bermudagrass ([4]; 31 g ai/ha, scale 0 to 100, 0 no effect, 100 complete control, last section of Table C (species set of preemergence test)): 95
Plant response rating, Bermudagrass [4, 26]: 100
Plant response rating (0 = no effect, 100 = complete control), Bermudagrass ([4]; 125 g ai/ha, preemergence): 100
Plant response rating, Bermudagrass [4, 27]: 100
Plant response rating, Bermudagrass [4, 21]: 60
Plant response rating, Bermudagrass [4, 22]: 30
Plant response rating, Bermudagrass [4, 23]: 5
Plant response rating, Bermudagrass [4, 24]: 20
Plant response rating, Foxtail, Giant [5, 28]: 70
Plant response rating (0 = no effect, 100 = complete control), Foxtail, Giant ([5]; 125 g ai/ha, preemergence): 80
Plant response rating, Foxtail, Giant [5, 21]: 60
Plant response rating, Foxtail, Giant [5, 22]: 45
Plant response rating, Foxtail, Giant [5, 24]: 40
Plant response rating, Lambsquarters [6, 28]: 5
Plant response rating (0 = no effect, 100 = complete control), Lambsquarters ([6]; 125 g ai/ha, preemergence): 10
Plant response rating, Lambsquarters [6, 27]: 90
Plant response rating, Lambsquarters [6, 22]: 40
Plant response rating, Lambsquarters [6, 24]: 10
Plant response rating, Morningglory [7, 28]: 0
Plant response rating (0 = no effect, 100 = complete control), Morningglory ([7]; 125 g ai/ha, preemergence): 0
Plant response rating, Morningglory [7, 27]: 5
Plant response rating, Morningglory [7, 24]: 10
Plant response rating, Nightshade ([8]; 62 g ai/ha, scale 0 to 100): 50
Plant response rating (0 = no effect, 100 = complete control), Nightshade ([8]; 125 g ai/ha): 50
Plant response rating, Nightshade ([8]; 250 g ai/ha, scale 0-100): 55
Plant response rating, Nutsedge, Yellow ([9]; 31 g ai/ha, scale 0 to 100, last section of Table C, preemergence): 0
Plant response rating, Nutsedge, Yellow [9, 28]: 0
Plant response rating (0 = no effect, 100 = complete control), Nutsedge, Yellow ([9]; 125 g ai/ha, preemergence): 0
Plant response rating, Nutsedge, Yellow [9, 27]: 0
Plant response rating, Ragweed [10, 28]: 0
Plant response rating (0 = no effect, 100 = complete control), Ragweed ([10]; 125 g ai/ha, preemergence): 5
Plant response rating, Ragweed [10, 27]: 10
Plant response rating, Ragweed [10, 22]: 10
Plant response rating, Ragweed [10, 24]: 5
Plant response rating, Chickweed [11, 21]: 100
Plant response rating, Chickweed [11, 22]: 100
Plant response rating, Chickweed [11, 23]: 100
Plant response rating, Chickweed [11, 24]: 100

CCn1nc(C(C)(C)C)cc1C(=O)Nc1cccc(OC(F)F)c1 [Compound 332]
Plant response rating, Bermudagrass [4, 26]: 80
Plant response rating, Bermudagrass [4, 19]: 100
Plant response rating, Bermudagrass [4, 27]: 100
Bermudagrass plant response rating ([4]; Postemergence, scale 0 to 100): 70
Plant response rating, Bermudagrass [4, 21]: 50
Bermudagrass plant response rating ([4]; Preemergence, scale 0 to 100, 0 no effect, 100 complete control): 100
Plant response rating, Bermudagrass [4, 22]: 10
Plant response rating, Bermudagrass [4, 24]: 5
Plant response rating, Foxtail, Giant [5, 28]: 0
Plant response rating, Foxtail, Giant [5, 19]: 20
Plant response rating, Foxtail, Giant [5, 27]: 60
Plant response rating, Foxtail, Giant [5, 29]: 80
Foxtail, Giant plant response rating [5, 30]: 20
Plant response rating, Foxtail, Giant [5, 21]: 15
Plant response rating, Foxtail, Giant [5, 22]: 10
Plant response rating, Foxtail, Giant [5, 24]: 10
Plant response rating, Lambsquarters [6, 28]: 100
Plant response rating, Lambsquarters [6, 19]: 100
Plant response rating, Lambsquarters [6, 27]: 100
Plant response rating, Lambsquarters [6, 29]: 100
Lambsquarters plant response rating [6, 30]: 100
Plant response rating, Lambsquarters [6, 21]: 100
Plant response rating, Lambsquarters [6, 22]: 65
Plant response rating, Lambsquarters [6, 24]: 50
Plant response rating, Morningglory [7, 28]: 0
Plant response rating, Morningglory [7, 19]: 0
Plant response rating, Morningglory [7, 27]: 0
Plant response rating, Morningglory [7, 29]: 0
Plant response rating, Morningglory [7, 21]: 80
Plant response rating, Morningglory [7, 22]: 10
Plant response rating, Morningglory [7, 24]: 5
Plant response rating, Nightshade ([8]; 62 g ai/ha, scale 0 to 100): 20
Plant response rating, Nightshade [8, 25]: 90
Plant response rating, Nightshade ([8]; 250 g ai/ha, scale 0-100): 95
Plant response rating, Nightshade ([8]; 500 g ai/ha, scale 0 to 100 (0 no effect, 100 complete control), visual, 12 to 14 days): 100
Plant response rating, Nutsedge, Yellow [9, 28]: 0
Plant response rating, Nutsedge, Yellow [9, 19]: 0
Plant response rating, Nutsedge, Yellow [9, 27]: 0
Plant response rating, Nutsedge, Yellow [9, 29]: 0
Nutsedge, Yellow plant response rating [9, 30]: 0
Plant response rating, Nutsedge, Yellow [9, 21]: 0
Plant response rating, Nutsedge, Yellow [9, 22]: 0
Plant response rating, Nutsedge, Yellow [9, 24]: 0
Plant response rating, Ragweed [10, 28]: 0
Plant response rating, Ragweed [10, 27]: 5
Plant response rating, Ragweed [10, 29]: 70
Ragweed plant response rating [10, 30]: 60
Plant response rating, Ragweed [10, 21]: 40
Plant response rating, Ragweed [10, 22]: 30
Plant response rating, Ragweed [10, 24]: 5
Chickweed plant response rating [11, 30]: 100
Plant response rating, Chickweed [11, 21]: 100
Plant response rating, Chickweed [11, 22]: 100
Plant response rating, Chickweed [11, 24]: 60
Sedge, Umbrella plant response rating ([12]; 62 g ai/ha, scale 0 to 100): 65
Sedge, Umbrella plant response rating [12, 31]: 80
Sedge, Umbrella plant response rating [12, 32]: 85
Plant response rating, Sedge, Umbrella [12, 33]: 85
Barnyardgrass plant response rating ([13]; 62 g ai/ha, scale 0 to 100 (0 no effect, 100 complete control)): 5
Barnyardgrass plant response rating [13, 31]: 25
Barnyardgrass plant response rating [13, 32]: 50
Plant response rating, Barnyardgrass [13, 33]: 60
